Reference: patent US10201532B2, “Compounds and their use” (ALLECRA THERAPEUTICS GMBH, priority 2010, dated 2019)

Tests used:
[1] = tested on: KPC2 K. pneumoniae ATCC BAA 1705; experiment: Mice systemic infection model; type: in vivo; conditions: Klebsiella pneumoniae, BAA1705; mice, sub-cutaneous; read-out: ED50 of Doripenem alone
Method: Female Swiss Albino mice, weighing 18-22 g were used for all studies. For each dose group, 5 or 6 mice were included. Study protocols were reviewed and approved by Institutional Animal Ethical Committee, Orchid Research Laboratories Limited. Mice were housed in individually ventilated cages provided with food and water ad libitum, throughout the study period. From overnight culture in Brain-Heart Infusion agar medium, challenge inoculum with required bacterial density was prepared in normal saline containing Hog gastric mucin. In studies involved with doripenem, washed bacterial cells was used. Each mouse was infected […] inoculum by intra-peritoneal injection.
Infected mice were dosed sub-cutaneously, with drug preparations at three different time points post-infection.
Imipenem with BLI combinations: Increasing concentrations of Imipenem as single agent or in combination with fixed concentration of BLIs were used to dose infected mice, sub-cutaneously. In this experiment Imipenem was always administered along with cilastatin. Doripenem with BLI combinations: Increasing concentrations of doripenem as single agent or in combination with fixed concentration of BLIs were used to dose infected mice, sub-cutaneously.
Survival of the treated mice were monitored twice a day, up to 7 days post-infection. Efficacy dose 50 (ED50) was calculated by Reed and Muench method (Reed, L. J.; Muench, H. “A simple method of estimating fifty percent endpoints”. The American Journal of Hygiene, 1938, 27: 493-497.).

[2] = tested on: KPC2 K. pneumoniae ATCC BAA 1705; experiment: Neutropenic mice thigh infection model (human adapted model); type: in vivo; conditions: Doripenem 70 mg/kg fractionated over 5.5 h; end point 8 h
Method: Female Swiss Albino mice weighing 24-30 g were used for all studies. Study protocols were reviewed and approved by Institutional Animal Ethical Committee, Orchid Research Laboratories Limited. Mice were rendered neutropenic by intra-peritoneal cyclophosphamide injections. Log phase culture in brain heart infusion broth was injected in to mice thighs. Imipenem or Doripenen alone or in combination were administered sub-cutaneously in decreasing fractionated doses every 15 minutes over the period of 5.5 h (Flückiger, U. et al. “Integration of pharmacokinetics and pharmacodynamics of Imipenem in a human-adapted mouse model’. Antimicrobial Agents and Chemother, 1991, 35(9): 1905-1910). The Compound-1 or tazobactam was administered sub-cutaneously as bolus dose at the start of dosing. Efficacy end point was 6 h in Imipenem studies and 8 h in Doripenen studies.
Three experiments were carried out where Doripenen alone or in combination with compound-1 or tazobactam (two experiments) were evaluated. Doripenem 70 mg/kg was administered in fractionated doses over the period of 5.5 h (Fluckiger, U. et al. “Integration of pharmacokinetics and pharmacodynamics of Imipenem in a human-adapted mouse model’. Antimicrobial Agents and Chemother., 1991, 35(9): 1905-1910). Compound-1 or tazobactam was administered as bolus dose at initiation of therapy. Efficacy end point was 8 h after initiation of therapy.

[3] = tested on: E. coli Ecoli233 (KPC3); experiment: Synergistic broth micro-dilution MIC; type: cell-based, Escherichia coli
[4] = tested on: E. coli BAA-200 (SHV-4); experiment: MIC of Piperacillin with inhibitor, ESBL isolates; type: cell-based, Escherichia coli
[5] = tested on: E. coli BAA-199 (SHV-3); experiment: MIC of Piperacillin with inhibitor, ESBL isolates; type: cell-based, Escherichia coli
[6] = tested on: K. pneumoniae 700603 (SHV-18); experiment: MIC of Piperacillin with inhibitor, ESBL isolates; type: cell-based, Klebsiella pneumoniae
[7] = tested on: E. coli BAA-201 (TEM-3); experiment: MIC of Piperacillin with inhibitor, ESBL isolates; type: cell-based
[8] = tested on: KPC-2 producing K. pneumoniae (ATCC BAA-1705); experiment: Synergistic broth micro-dilution MIC (checkerboard); type: cell-based, Klebsiella pneumoniae; conditions: for Activity with imipenem against the KPC (2 & 3) producing strains, in words: summary of Table 2, all five strains
[9] = tested on: P. mirabilis BAA-663 (TEM-89); experiment: MIC of Piperacillin with inhibitor, ESBL isolates; type: cell-based
[10] = tested on: K. pneumoniae NCTC 13438 (KPC3); experiment: Synergistic broth micro-dilution MIC; type: cell-based, Klebsiella pneumoniae; conditions: BLI at 4 μg/mL
[11] = tested on: K. pneumoniae UMM3 (KPC2); experiment: Synergistic broth micro-dilution MIC; type: cell-based, Klebsiella pneumoniae; conditions: BLI at 4 μg/mL
[12] = tested on: E. cloacae 01 MGH 049 (KPC2, AmpC); experiment: Synergistic broth micro-dilution MIC; type: cell-based; conditions: BLI at 4 μg/mL
[13] = tested on: E. coli BAA-197 (TEM-12); experiment: MIC of Piperacillin with inhibitor, ESBL isolates; type: cell-based, Escherichia coli
[14] = tested on: E. coli BAA-198 (TEM-26); experiment: MIC of Piperacillin with inhibitor, ESBL isolates; type: cell-based, Escherichia coli
[15] = tested on: KPC-3 expressing E. coli (J53 R6206); experiment: Synergistic broth micro-dilution MIC (checkerboard); type: cell-based, Escherichia coli; conditions: no BLI
[16] = tested on: K. pneumoniae ATCC BAA-1705 (KPC2); experiment: Disk zone of inhibition, antibiotic + Compound-1 on same disk (Methodology 2); type: cell-based, Klebsiella pneumoniae; conditions: CAZ 30 μg or IPM 10 μg disk alone
Description: (§1) In this experiment, Compound-1 is used as a diagnostic reagent for the detection of β-lactamases belonging to the families KPC & ESBL (e.g., SHV18) producing Enterobacteriaceae. A simple set of absorbent paper disks impregnated with antibiotic on agar medium is used for the detection.
(§2) • 0.5 McFarland of the test organism was inoculated at 1:10 dilution on Muller • Hinton Agar plates • Test organisms: Klebsiella pneumoniae (K.p) ATCC BAA-1705, Klebsiella pneumoniae ATCC 700603, Escherichia coli (E.c) Ecoli233 • Carbapenem (e.g., Imipenem [IPM] 10 μg) and cephalosporin (e.g., Ceftazidime [CAZ] 30 μg) paper disks (7 mm) were placed on the inoculated agar plates • Compound-1 (60 μg) disk was placed at a distance of 7 & 10 mm from the carbapenem and cephalosporin disks. • The presence of expressed carbapenemases or ESBLs was measured as the expansion of Imipenem or Ceftazidime's inhibition zones due to synergy in the presence of Compound-1.
(§3) The methodology remains the same as Methodology 1 except the following change • Compound-1 (60 μg) was added on the same disk in combination with a carbapenem (e.g., Imipenem 10 μg) or cephalosporin (e.g., Ceftazidime 30 μg) and placed on the inoculated agar plate. • The presence of the expressed carbapenemases or ESBLs was measured as an increase in Imipenem or Ceftazidime's zone diameter in combination with Compound-1 compared to antibiotic alone. Results

[17] = tested on: E. coli ATCC 25922 (β-lac-ve); experiment: as above; type: cell-based, Escherichia coli; conditions: CAZ 30 μg or IPM 10 μg disk alone; ATCC 25922
[18] = tested on: E. coli Ecoli233 (KPC3); experiment: as above; type: cell-based, Escherichia coli; conditions: CAZ 30 μg or IPM 10 μg disk alone
Description: as §1, §2, §3

[19] = tested on: K. pneumoniae ATCC 700603 (SHV18); experiment: as above; type: cell-based, Klebsiella pneumoniae; conditions: CAZ 30 μg or IPM 10 μg disk alone
Description: as §1
as §2, with “Compound-1. Results:” for “Compound-1.”
as §3

| Compound | MIC of Imipenem in combination with BLI ([3]; BLI at 4 μg/mL) | MIC of Imipenem in combination with BLI ([3]; BLI at 16 μg/mL) | MIC of Piperacillin with inhibitor ([4]; inhibitor at 1 μg/mL) | MIC of Piperacillin with inhibitor ([4]; inhibitor at 2 μg/mL) | MIC of Piperacillin with inhibitor ([4]; inhibitor at 4 μg/mL) | MIC of Piperacillin with inhibitor ([5]; inhibitor at 1 μg/mL) | MIC of Piperacillin with inhibitor ([5]; inhibitor at 2 μg/mL) | MIC of Piperacillin with inhibitor ([5]; inhibitor at 4 μg/mL) | MIC of Piperacillin with inhibitor ([6]; inhibitor at 1 μg/mL) | MIC of Piperacillin with inhibitor ([6]; inhibitor at 2 μg/mL) | MIC of Piperacillin with inhibitor ([6]; inhibitor at 4 μg/mL) | MIC of Piperacillin with inhibitor ([7]; inhibitor at 1 μg/mL) | MIC of Piperacillin with inhibitor ([7]; inhibitor at 2 μg/mL) | MIC of Piperacillin with inhibitor ([7]; inhibitor at 4 μg/mL) | MIC of Imipenem in combination with BLI ([8]; BLI at 4 μg/mL, ATCC BAA-1705) | MIC of Imipenem in combination with BLI ([8]; BLI at 16 μg/mL, ATCC BAA-1705) | Activity with imipenem against the KPC (2 & 3) producing strains, in words [8] | MIC of Piperacillin with inhibitor ([9]; inhibitor at 1 μg/mL) | MIC of Piperacillin with inhibitor ([9]; inhibitor at 2 μg/mL) | MIC of Piperacillin with inhibitor ([9]; inhibitor at 4 μg/mL) | other results |
| --- | --- | --- | --- | --- | --- | --- | --- | --- | --- | --- | --- | --- | --- | --- | --- | --- | --- | --- | --- | --- | --- |
| C[C@@H](O)[C@H]1C(=O)N2C(C(=O)O)=C(S[C@@H]3CN[C@H](CNS(N)(=O)=O)C3)[C@H](C)[C@H]12 [Doripenem] |  |  |  |  |  |  |  |  |  |  |  |  |  |  |  |  |  |  |  |  | ED50 [1]: 14.1 mg/kg; Bacterial load (range), Doripenem alone [2]: 5.4E+06-2.6E+07 CFU/thigh |
| C[n+]1ccn(C[C@@]2(C)[C@H](C(=O)[O-])N3C(=O)C[C@H]3S2(=O)=O)c1 [Compound-12, (2S,3S,5R)-3-Methyl-3-(3-methyl-imidazol-3-ium-1-ylmethyl)-4,4,7-trioxo-4-thia-1-azabicyclo[3.2.0]heptane-2-carboxylate] | 4 µg/mL | 1 µg/mL | 32 µg/mL | 8 µg/mL | 4 µg/mL | >128 µg/mL | >128 µg/mL | 2 µg/mL | 8 µg/mL | 16 µg/mL | 8 µg/mL | 2 µg/mL | 4 µg/mL | 4 µg/mL | 4 µg/mL | 4 µg/mL | improved activity | 8 µg/mL | 16 µg/mL | >128 µg/mL | MIC of Imipenem in combination with BLI [10]: 64 µg/mL; MIC of Imipenem in combination with BLI [11]: 2 µg/mL; MIC of Imipenem in combination with BLI [12]: 8 µg/mL; MIC of Piperacillin with inhibitor ([13]; inhibitor at 1 μg/mL): 4 µg/mL; MIC of Piperacillin with inhibitor ([13]; inhibitor at 2 μg/mL): 4 µg/mL; MIC of Piperacillin with inhibitor ([13]; inhibitor at 4 μg/mL): 4 µg/mL; MIC of Piperacillin with inhibitor ([14]; inhibitor at 1 μg/mL): 4 µg/mL; MIC of Piperacillin with inhibitor ([14]; inhibitor at 2 μg/mL): 4 µg/mL; MIC of Piperacillin with inhibitor ([14]; inhibitor at 4 μg/mL): 4 µg/mL |
| C[C@]1(Cn2ccnc2)[C@H](C(=O)O)N2C(=O)C[C@H]2S1(=O)=O [Compound-M, (2S,3S,5R)-3-(imidazol-1-ylmethyl)-3-methyl-4,4,7-trioxo-4-thia-1-aza-bicyclo[3.2.0]heptane-2-carboxylic acid] | 16 µg/mL | 16 µg/mL | >128 µg/mL | >128 µg/mL | >128 µg/mL | >128 µg/mL | >128 µg/mL | >128 µg/mL | 16 µg/mL | 32 µg/mL | 16 µg/mL | 4 µg/mL | 4 µg/mL | 4 µg/mL | 8 µg/mL | 8 µg/mL | only moderately active | 64 µg/mL | >128 µg/mL | >128 µg/mL | MIC of Imipenem in combination with BLI [10]: 64 µg/mL; MIC of Imipenem in combination with BLI [11]: 8 µg/mL; MIC of Imipenem in combination with BLI [12]: 8 µg/mL; MIC of Piperacillin with inhibitor ([13]; inhibitor at 1 μg/mL): 4 µg/mL; MIC of Piperacillin with inhibitor ([13]; inhibitor at 2 μg/mL): 8 µg/mL; MIC of Piperacillin with inhibitor ([13]; inhibitor at 4 μg/mL): 4 µg/mL; MIC of Piperacillin with inhibitor ([14]; inhibitor at 1 μg/mL): 4 µg/mL; MIC of Piperacillin with inhibitor ([14]; inhibitor at 2 μg/mL): 4 µg/mL; MIC of Piperacillin with inhibitor ([14]; inhibitor at 4 μg/mL): 4 µg/mL |
| CC(C)(O/N=C(\C(=O)N[C@@H]1C(=O)N2C(C(=O)[O-])=C(C[n+]3ccccc3)CS[C@H]12)c1csc(N)n1)C(=O)O [Ceftazidime] |  |  |  |  |  |  |  |  |  |  |  |  |  |  |  |  |  |  |  |  | MIC of antibiotic alone (no BLI) [15]: >32 µg/mL; Zone of inhibition (ZOI), antibiotic alone [16]: 12 mm; Zone of inhibition (ZOI), antibiotic alone [17]: 25 mm; MIC ([8]; Klebsiella pneumoniae, ATCCBAA1705, no BLI, ATCC BAA-1705, read-out: MIC of antibiotic alone (no BLI)): > 128 µg/mL; Zone of inhibition (ZOI), antibiotic alone [18]: 11 mm; Zone of inhibition (ZOI), antibiotic alone [19]: 12 mm |
